Source: patent publication US12465658B2, “Eye drop composition” (Aratana Therapeutics, Inc., priority 2012, dated 2025)
Like-named read-outs stand apart in the source and are kept apart here.

Columns and labels:
herpes virus = conditions: Neyts et al. 2001; Iwayama et al. 1998; cited from earlier work
[1] = background; more than 1 mg/mL typically requires pH below 4 or above 10; cited from earlier work
[2] = system: herpes simplex virus type 1 (HSV-1); conditions: in vivo, reported; cited from earlier work
[3] = system: herpes simplex virus type 2 (HSV-2); conditions: in vivo, reported; cited from earlier work
varicella-zoster (VZV) = conditions: in vivo, reported; cited from earlier work
[4] = Solubility of A-5021 by slurry experiments (24 h equilibration, filtration, HPLC of filtrate); assay type: physicochemical; conditions: for solubility at 24 h: thermodynamic from solid
Method: In order to determine the solubility of A-5021 (i.e. 2-amino-9-[[(1S,2R)-1,2-bis(hydroxymethyl)cyclopropyl]methyl]-1,9-dihydro-6H-Purin-6-one), a first series of 33 slurry experiments was performed. Within these experiments a set of 33 different systems (varying in i.e. buffers, co-solvents, solubilizing agents) were considered. The following six buffers were used: HCl buffer (pH 2), phosphate buffer (pH 6.8 and 7.4), tris(hydroxymethyl)aminoethane buffer (pH 9), sodium carbonate/bicarbonate (pH 10.8), and potassium dihydrogen phosphate (pH 12). As co-solvents dimethyl sulfoxide (DMSO), dimethyl acetamide (DMA), N-methyl pyrrolidone (NMP), ethanol (EtOH), and propylene glycol were used with varying concentrations. The solubilizing agents used were propylene glycol, glycerin, solutol HS 15, polysorbate 80, beta-cyclodextrin, hydroxypropyl beta-cyclodextrin (Kleptose® HPB), cremophor EL, cremophor RH 60, polyethylene glycol (PEG) 300, PEG 400, and sulfobutylether beta-cyclodextrin (e.g. Captisol®). The solubility was determined by filtration of the slurries after 24 h equilibration time. The A-5021 concentration in the filtrates was analyzed by High-Performance Liquid Chromatography (HPLC), from which the corresponding solubility was calculated.
Two different buffer systems, co-solvents, and solubilizing agents were considered with focus on systems that gave the best results as reported above. The solubility was again determined by filtration of the slurries after 24 h equilibration time. The A-5021 concentration in the filtrates was analyzed by HPLC, from which the corresponding solubility was calculated. Overall, no greater solubility values than the already reported values were found. […] A close to neutral pH buffered system (80% v/v propylene glycol and 20% v/v phosphate buffer at pH 7.4), which is of interest to develop ophthalmic solutions (allowing topical application of A-5021 to herpes virus-infected eyes) allows to solubilize A-5021 at 8.18 mg/mL. When 2-hydroxypropyl beta-cyclodextrin (HPBC) is used as a solubilizing agent instead of propylene glycol, the solubility of A-5021 decreases compared to the propylene glycol buffered systems.

[5] = Vehicle candidates tested to solubilize A-5021 at 5 mg/mL at neutral pH; assay type: physicochemical; conditions: aqueous with cosolvent or surfactant or cyclodextrin, pH 6.98-7.1 1, read-out: concentration of A-5021 solubilized
Method: Based on the above indicated results and in order to be able to formulate A-5021 at pharmacologically active concentrations (preferably about […]), it was considered to investigate of additional solubilizing agents and/or keeping a high amount of propylene glycol at neutral pH. In total 28 vehicle candidates were tested to solubilize A-5021 at 5 mg/mL at neutral pH: propylene glycol at concentration ranging from 20% to 80% w/v, glycofurol at concentration ranging from 5% to 50% w/v, glycerol at concentration ranging from 15% to 50% w/v, 15% w/v glycerol+15 w/v glycofurol, 25% w/v propylene glycol+25% w/v glycofurol, propylene glycol (range: 15%-60% w/v)+glycerol (range: 5%-15% w/v), 25% w/v Kleptose® HPB+25% propylene glycol, cremophor RH 40, cremophor EL, solutol HS 15, 40-50% Kleptose® HPB, miglyol 812N, liquid paraffin, polyvinylpyrrolidone K12.
Only four vehicles allowed solubilizing A-5021 at the concentration of 5 mg/mL (0.5% w/v) at close to neutral pH (the pH ranged from 6.98-7.1 1). These vehicles are (% w/v in water): • (i) 80% w/v propylene glycol; • (ii) 50% w/v Kleptose® HPB; • (iii) 60% w/v propylene glycol+15% w/v glycerol; • (iv) 60% w/v propylene glycol+10% w/v glycerol.

## Nc1nc2c(ncn2C[C@]2(CO)C[C@H]2CO)c(=O)[nH]1 [Formulation A-5021, 2-amino-9-[[(1S,2R)-1,2-bis(hydroxymethyl)cyclopropyl]methyl]-1,9-dihydro-6H-Purin-6-one]
Herpes virus
  inhibition of herpes virus replication: potent inhibitor
[1]
  solubility: poor solubility
[2]
  antiviral activity: potent and selective antiviral agent
[3]
  antiviral activity: potent and selective antiviral agent
varicella-zoster (VZV)
  antiviral activity: potent and selective antiviral agent
[4]; 80% (v/v) propylene glycol / 20% (v/v) buffer, pH 1, aqueous with cosolvent or surfactant or cyclodextrin, 80% (v/v) propylene glycol in 20% (v/v) buffer (pH 1 1.3), highest solubility
  solubility at 24 h: 8640 µg/mL
[4]; 80% v/v propylene glycol / 20% v/v phosphate buffer, pH 7.4, aqueous with cosolvent or surfactant or cyclodextrin, 80% v/v propylene glycol and 20% v/v phosphate buffer at pH 7.4
  solubility at 24 h: 8180 µg/mL
[4]; pH 2.2, aqueous with cosolvent or surfactant or cyclodextrin, 60% v/v HCl buffer and 40% w/v HPBC, pH 2.2
  solubility at 24 h: 6760 µg/mL
[4]; pH 2.8, aqueous with cosolvent or surfactant or cyclodextrin, acidic pH 2.8 instead of pH 11.3, room temperature
  solubility at 24 h: 8500 µg/mL
[4]; pH 7, aqueous with cosolvent or surfactant or cyclodextrin, 5.7-33.34% v/v propylene glycol, 33.33-40% w/v/v HPBC, 33.34-54.3% v/v buffer, pH 7.0-7.4
  solubility at 24 h: 3280 to 4050 µg/mL
[4]; pH 7, aqueous with cosolvent or surfactant or cyclodextrin, 60% v/v HCl buffer and 40% w/v HPBC, pH 7
  solubility at 24 h: 4910 µg/mL
[4]; pH 12 buffered solutions
  effect on solubility of adding an organic co-solvent: does not improve the solubility
[5]; vehicle (i) 80% w/v propylene glycol in water
  solubility: 5000 µg/mL
[5]; vehicle (ii) 50% w/v Kleptose HPB in water
  solubility: 5000 µg/mL
[5]; vehicle (iii) 60% w/v propylene glycol+15% w/v glycerol in water
  solubility: 5000 µg/mL
[5]; vehicle (iv) 60% w/v propylene glycol+10% w/v glycerol in water
  solubility: 5000 µg/mL
